For experiment [1], the system named is PTX-sensitive/Gαi-dependent MAPK isoform activation. Description: PTX-sensitive/Gαi-dependent MAPK isoform activation (data not shown). The class given is cell-based.
For experiment [2], the system named is androgen-resistant tumor cells. The note with it: compared with androgen-dependent prostate cancers; Jungwirth et al; cited from earlier work.
The test system of experiment [3] is ERK1/2. In words: ERK1/2 phosphorylation immunoblot in BPH-1 cells. It is filed as cell-based, human. The note with it: FIG. 5 panel c. The text has this:
The panel depicts a representative anti-phospho-ERK1/2 w-c lysate immunoblot of stimulated BPH-1 cell extracts. […] Each bar of the histogram represents the mean±s.e. mean of three to four experimental replicates. […] Panel c) depicts the extent of ERK1/2 activation in BPH-1 cells induced by stimulation with GnRH I, II, Ant 135-25 and Ant 135-18. […] Each bar of the histogram represents the mean± s.e. mean of three to four experimental replicates.

For experiment [4], the system named is HEK293 cells stably expressing the Type I GnRHR (SCL60). In words: Anti-proliferative effect on SCL60 cells, viable cell count after 5 days. The class given is cell-based, human. The note with it: 5 days continuous treatment, trypan blue exclusion. On the procedure:
An identical methodology of measuring cell growth was employed as in FIG. 1.
(§1) Each cell type was plated at an initial minimal confluency (10-20%) to allow for 5 days of normal continual cell growth that would not result in 100% cell confluency by day 5. Each ligand was incubated, in triplicate for every experimental concentration, with the cell monolayers for five days with replacement of the ligand every 12 h. At the end of the stimulation period the number of viable cells was estimated by their capacity to prevent uptake of Trypan Blue stain.
We further investigated the nature of the ligand-receptor specificity of the anti-proliferative effects of GnRH receptor systems by studying our ligand panel effects upon a model cell background, i.e. SCL60 HEK293 cells stably expressing the rat Type I GnRHR. […] We attribute this greater effect of the GnRHR ligands upon the SCL60 cells to the much greater level of receptor expression in the SCL60 cells.

The target of experiment [5] is T1, marmoset Type II GnRH receptor (Callithrix jacchus, UniProt Q95MG6).
T1 construct: expressed in transfected cells
T1 sequence (Q95MG6 1-380): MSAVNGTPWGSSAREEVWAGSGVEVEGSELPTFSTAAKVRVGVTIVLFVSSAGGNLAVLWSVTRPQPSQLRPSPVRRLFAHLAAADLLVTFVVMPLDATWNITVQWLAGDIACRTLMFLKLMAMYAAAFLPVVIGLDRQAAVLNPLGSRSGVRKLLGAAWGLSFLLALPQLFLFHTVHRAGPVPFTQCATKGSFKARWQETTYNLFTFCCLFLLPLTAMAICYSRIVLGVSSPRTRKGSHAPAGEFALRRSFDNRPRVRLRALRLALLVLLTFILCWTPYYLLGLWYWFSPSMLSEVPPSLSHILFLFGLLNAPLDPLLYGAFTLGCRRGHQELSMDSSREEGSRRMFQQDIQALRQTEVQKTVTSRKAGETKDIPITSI
Description: Inositol phosphate accumulation in αT4-II cells. The class given is cell-based. The conditions noted are these: GnRH II 10 nM. On the procedure:
The histograms in panels a and b represent inositol phosphate accumulation data from HEK293 cells stably expressing the Type I GnRH receptor only (SCL60). […] In panels c and d, the liberated inositol phosphates generated were measured in the proto-gonadotrope cells (αT4) stably expressing the marmoset Type II GnRH receptor (designated αT4-II).
The ability of the four major agents under study at activating ectopically expressed Type I or Type II GnRHR were tested (FIG. 12). The classical signal transduction cascade activated by GnRHR stimulation is the Gαq-PLC-β cascade. Both Type I and II receptor can stimulate the Gαq-PLC type-G-protein and activate PLC-β which cleaves phosphatidylinositol bisphosphate (PIP2) into inositol trisphosphate (IP3), other lower inositol phosphates (IPn) and diacylglycerol (DAG). The major function of IP3 is to elevate intracellular Ca^2+ while DAG causes the activation of specific PKC (protein kinase C) isoforms.
Panels a and b of FIG. 12 depict the generation of free cytoplasmic ^3H-myo-inositols on the plasma membranes of HEK293 cells expressing the Type I GnRHR and of αT4 gonadotropes expressing the marmoset Type II GnRHR. Prior to agonist stimulation the respective cells were incubated in inositol-free growth media supplemented with 1 μCi/ml ^3H-myoinositol for 48 h. G protein coupled receptor (GPCR)-induced activation of PLC-β results in the cleavage of PIP2 (incorporating tritium ^3H) into free lower inositol phosphates (IPns).

The test system of experiment [6] is ERK1/2. Description: ERK1/2 phosphorylation immunoblot in JEG-3 cells. It is filed as cell-based, human. The note with it: 100 nM, 10 minutes.
Experiment [7] has as its system human JEG-3 choriocarcinoma cells. Description: Anti-proliferative effect on JEG-3 cells, viable cell count after 5 days. The note with it: 5 days continuous treatment, trypan blue exclusion. It is filed as cell-based. On the procedure:
(§2) Low cell density JEG-3 cell subcultures were treated for 5 days continuously with the indicated doses of GnRH I (a), GnRH II (b), antagonist 135-18 (c) or antagonist 135-25 (d) added directly to Dulbecco's modified Eagles medium supplemented with 10% FCS, glutamine and penicillin/streptomycin. Ligands were replenished every 24 h. At the end of the stimulation period cells were removed from the growth plates with trypsin and mixed with trypan blue dye (enters non-viable cells). Only viable cells were therefore counted using a haemocytometer in quadruplicate for each ligand dose. The bars in each histogram represent the mean±s.e. mean of n=4 experiments.
as §1

Experiment [8] concerns PLC-β. In words: Inositol phosphate accumulation in BPH-1 cells. The class given is cell-based, human. As for the experimental part: BPH-1 cells were pre-incubated with ^3H-myoinositol (1 μCi/ml) for 48 h prior to ligand stimulation (60 minutes). Ligand stimulated inositol phosphate production was measured in the presence of 10 mM LiCl. […] IP accumulation can be used as a read out/marker for Gαq activation since the activation of PLCβ is PTX-resistant.

For experiment [9], the system named is human benign prostate hyperplastic (BPH-1) cells. In words: Anti-proliferative effect on BPH-1 cells, viable cell count after 5 days. The conditions noted are these: 5 days continuous treatment, trypan blue exclusion. The class given is cell-based. On the procedure: as §2, with “density BPH-1” for “density JEG-3”, “(b), Ant” for “(b), antagonist”, “or Ant” for “or antagonist”, “to RPMI 1640” for “to Dulbecco's modified Eagles”, “removed form” for “removed from”, “plates by” for “plates with”
as §1
Employing an identical growth and stimulation methodology to that described in the previous paragraph and in FIG. 1 we exposed the hyperplastic cell line, BPH-1, to the same panel of GnRH ligands and antagonistic analogues (FIG. 2). Reminiscent of FIG. 1 both endogenous GnRH agonists exert a similar mode of action with respect to their dose-dependent inhibition of BPH-1 cell growth over the five day stimulation period.

Entries after “also recorded” stand apart in the source; their conditions may differ. Square brackets hold non-standard residues; d marks the D form. Peptide text beside a SMILES is read from it. dPhe(4-Cl) = N[C@H](Cc1ccc(Cl)cc1)C(=O)O; d2Nal = N[C@H](Cc1ccc2ccccc2c1)C(=O)O; dCit = NC(=O)NCCC[C@@H](N)C(=O)O; d3Pal = N[C@H](Cc1cccnc1)C(=O)O; pGlu = O=C1CC[C@@H](C(=O)O)N1

For `CC(=O)N[C@H](Cc1ccc2ccccc2c1)C(=O)N[C@H](Cc1ccc(Cl)cc1)C(=O)N[C@H](Cc1cccnc1)C(=O)N[C@@H](CO)C(=O)N[C@@H](Cc1ccc(O)cc1)C(=O)N[C@H](CCCNC(N)=O)C(=O)N[C@@H](CC(C)C)C(=O)N[C@@H](CCCNC(=N)N)C(=O)N1CCC[C@H]1C(=O)N[C@H](C)C(N)=O` [Cetrorelix] (Ac-[d2Nal][dPhe(4-Cl)][d3Pal]SY[dCit]LRP[dA]-NH2), the “potency at stimulating PTX-sensitive/Gαi-dependent MAPK isoform activation” value in experiment [1] is given as “significantly less potent than Ant 135-25”. Besides, the “doses required to attenuate growth of androgen-resistant tumor cells” value in [2] is reported as “considerably higher doses”.

As to “GnRH II: A second form of GnRH, identified in the mid-brain of many vertebrates ([pGlu]HWSHGWYPG-NH2; ends and bridges not checked; UniProt O43555 24-33, looked up)”, the “extent of ERK1/2 activation” value in experiment [3] is reported as “A similar pattern to JEG-3 of ligand activation”. Also, the “anti-proliferative effect (viable cell number)” value in experiment [4] was “greater anti-proliferative efficacy; also recorded: less potent than GnRH I at arresting the SCL60 cell growth”; in [7], “potent and dose-dependent anti-proliferative effect; also recorded: clear dose-response relationships for the inhibition of cellular growth”. In addition, in [5], the “agonistic activity: liberated inositol phosphates at marmoset Type II GnRH receptor” value is on record as “yields an increase in free tritiated inositol phosphates; also recorded: results in a similar action to GnRH I upon the SCL60 cells”. In addition, the “extent of ERK1/2 phosphorylation (activation)” value in [6] is given as “less effective”. The inositol phosphate accumulation result in [8] (60 minutes, 10 mM LiCl, doses up to 50 μM) is listed as “poor activity; also recorded: small capacity to induce inositol phosphate accumulation”.

For the molecule lysophosohatidic acid [LPA], the “anti-proliferative effect (viable cell number)” value in experiment [9] and in [7] was “failed to significantly attenuate the cell growth” each time. Besides, the “effect of pertussis toxin pre-incubation on induced inositol phosphate accumulation” value in [8] (PTX 200 ng/ml 16 h, GnRH I 50 μM) is “insensitive to PTX pre-incubation; also recorded: completely insensitive to the pertussis toxin”.

Source of the values: US7361633B2, “Screening method and anti-tumor drug candidate obtained therefrom” (Ardana Bioscience Limited, priority 2002, dated 2008).
